According to paper PMC11842588, “A first-in-class selective inhibitor of ERK1/2 and ERK5 overcomes drug resistance with a single-molecule strategy” (Signal Transduction and Targeted Therapy, 2025):

Assays:
Experiment in all cases: Kinase profiling
Format in all cases: biochemical
[1] = biological target: T1, Plk4(h) (Homo sapiens, UniProt O00444)
T1 construct: purchased Eurofins Cerep SA (KinaseProfiler)
Procedure: (§1) 380 kinases inhibitory activities of SKLB-D18 were conducted by Eurofins Cerep SA. The result was illustrated by kinase tree (http://www.kinhub.org/kinmap/).

[2] = biological target: T2, Arg(h) (Homo sapiens, UniProt P42684)
T2 construct: purchased Eurofins Cerep SA (KinaseProfiler)
Procedure: as §1

[3] = biological target: T3, HIPK4(h) (Homo sapiens, UniProt Q8NE63)
T3 construct: purchased Eurofins Cerep SA (KinaseProfiler)
Procedure: as §1

[4] = biological target: T4, PI3KC2g(h) (Homo sapiens, UniProt O75747)
T4 construct: purchased Eurofins Cerep SA (KinaseProfiler)
Procedure: as §1

[5] = biological target: T5, CDK14/cyclinY(h) (Homo sapiens, UniProt O94921)
T5 construct: purchased Eurofins Cerep SA (KinaseProfiler)
Procedure: as §1

[6] = biological target: T6, DRAK1(h) (Homo sapiens, UniProt Q9UEE5)
T6 construct: purchased Eurofins Cerep SA (KinaseProfiler)
Procedure: as §1

[7] = biological target: T7, SNRK(h) (Homo sapiens, UniProt Q9NRH2)
T7 construct: purchased Eurofins Cerep SA (KinaseProfiler)
Procedure: as §1

[8] = biological target: T8, ZAP-70(h) (Homo sapiens, UniProt P43403)
T8 construct: purchased Eurofins Cerep SA (KinaseProfiler)
T8 sequence (P43403 whole entry): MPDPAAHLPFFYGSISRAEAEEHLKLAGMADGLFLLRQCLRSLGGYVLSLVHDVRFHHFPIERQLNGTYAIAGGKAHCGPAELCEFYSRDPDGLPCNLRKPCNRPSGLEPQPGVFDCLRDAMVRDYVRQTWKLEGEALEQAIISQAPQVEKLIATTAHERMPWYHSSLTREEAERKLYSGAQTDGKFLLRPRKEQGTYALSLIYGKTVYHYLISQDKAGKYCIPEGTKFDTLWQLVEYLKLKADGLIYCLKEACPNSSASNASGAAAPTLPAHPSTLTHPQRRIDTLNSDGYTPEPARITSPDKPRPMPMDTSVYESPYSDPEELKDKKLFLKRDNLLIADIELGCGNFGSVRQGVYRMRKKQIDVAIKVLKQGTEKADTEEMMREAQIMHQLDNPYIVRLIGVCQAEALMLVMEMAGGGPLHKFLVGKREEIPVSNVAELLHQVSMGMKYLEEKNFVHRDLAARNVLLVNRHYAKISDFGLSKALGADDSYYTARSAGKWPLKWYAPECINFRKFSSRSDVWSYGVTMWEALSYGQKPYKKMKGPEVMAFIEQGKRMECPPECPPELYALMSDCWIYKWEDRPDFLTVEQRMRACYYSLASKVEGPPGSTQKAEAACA
Procedure: as §1

[9] = biological target: T9, Blk(h) (Homo sapiens, UniProt P51451)
T9 construct: purchased Eurofins Cerep SA (KinaseProfiler)
T9 sequence (P51451 whole entry): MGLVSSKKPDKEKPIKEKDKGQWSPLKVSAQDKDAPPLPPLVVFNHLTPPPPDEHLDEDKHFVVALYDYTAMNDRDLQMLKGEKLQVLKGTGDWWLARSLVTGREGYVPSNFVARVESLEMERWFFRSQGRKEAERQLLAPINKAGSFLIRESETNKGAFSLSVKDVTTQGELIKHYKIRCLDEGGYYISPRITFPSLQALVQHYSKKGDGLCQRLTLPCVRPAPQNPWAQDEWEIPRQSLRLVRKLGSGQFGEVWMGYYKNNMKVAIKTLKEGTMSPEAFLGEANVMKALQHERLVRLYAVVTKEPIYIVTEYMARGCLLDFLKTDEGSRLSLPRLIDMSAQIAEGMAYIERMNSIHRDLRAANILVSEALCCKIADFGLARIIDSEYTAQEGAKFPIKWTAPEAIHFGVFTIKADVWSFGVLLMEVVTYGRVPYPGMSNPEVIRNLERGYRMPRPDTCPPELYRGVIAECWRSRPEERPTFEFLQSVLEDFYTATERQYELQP
Procedure: as §1

[10] = biological target: T10, Rsk4(h) (Homo sapiens, UniProt Q9UK32)
T10 construct: purchased Eurofins Cerep SA (KinaseProfiler)
Procedure: as §1

[11] = biological target: T11, CDK3/cyclinE(h) (Homo sapiens, UniProt Q00526)
T11 construct: purchased Eurofins Cerep SA (KinaseProfiler)
Procedure: as §1

[12] = biological target: T12, LATS1(h) (Homo sapiens, UniProt O95835)
T12 construct: purchased Eurofins Cerep SA (KinaseProfiler)
T12 sequence (O95835 whole entry): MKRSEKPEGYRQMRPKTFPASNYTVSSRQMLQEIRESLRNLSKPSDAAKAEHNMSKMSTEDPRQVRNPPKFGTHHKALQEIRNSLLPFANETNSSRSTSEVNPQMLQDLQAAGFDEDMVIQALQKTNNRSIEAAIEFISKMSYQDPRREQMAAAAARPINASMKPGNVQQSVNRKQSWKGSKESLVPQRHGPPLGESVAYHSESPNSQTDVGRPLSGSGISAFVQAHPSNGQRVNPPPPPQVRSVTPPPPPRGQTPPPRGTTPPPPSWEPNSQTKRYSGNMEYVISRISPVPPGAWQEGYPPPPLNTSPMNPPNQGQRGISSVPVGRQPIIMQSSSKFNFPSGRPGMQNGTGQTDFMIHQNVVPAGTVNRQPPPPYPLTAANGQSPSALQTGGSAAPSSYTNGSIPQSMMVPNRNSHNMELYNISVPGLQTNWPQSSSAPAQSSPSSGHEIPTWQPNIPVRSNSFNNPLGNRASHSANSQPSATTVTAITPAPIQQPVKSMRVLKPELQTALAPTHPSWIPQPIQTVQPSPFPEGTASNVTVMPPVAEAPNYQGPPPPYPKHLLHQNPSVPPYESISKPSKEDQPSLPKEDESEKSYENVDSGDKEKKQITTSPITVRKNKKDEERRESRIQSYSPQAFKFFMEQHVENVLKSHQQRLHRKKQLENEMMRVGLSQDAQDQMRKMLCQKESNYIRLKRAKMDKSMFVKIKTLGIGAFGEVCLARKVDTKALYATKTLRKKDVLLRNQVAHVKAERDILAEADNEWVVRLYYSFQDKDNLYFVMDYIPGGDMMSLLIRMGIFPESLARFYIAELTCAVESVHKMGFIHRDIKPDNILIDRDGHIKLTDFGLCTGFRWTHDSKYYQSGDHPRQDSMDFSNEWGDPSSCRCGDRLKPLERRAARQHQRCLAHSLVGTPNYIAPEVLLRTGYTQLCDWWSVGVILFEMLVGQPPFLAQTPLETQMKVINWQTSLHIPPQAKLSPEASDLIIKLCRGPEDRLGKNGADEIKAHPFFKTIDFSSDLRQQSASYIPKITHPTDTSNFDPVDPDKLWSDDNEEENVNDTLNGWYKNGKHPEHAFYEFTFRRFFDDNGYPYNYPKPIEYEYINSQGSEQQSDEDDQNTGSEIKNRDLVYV
Procedure: as §1

[13] = biological target: T13, MAP4K3(h) (Homo sapiens, UniProt Q8IVH8)
T13 construct: purchased Eurofins Cerep SA (KinaseProfiler)
Procedure: as §1

[14] = biological target: T14, PDHK2(h) (Homo sapiens, UniProt Q15119)
T14 construct: purchased Eurofins Cerep SA (KinaseProfiler)
Procedure: as §1

[15] = biological target: T15, MAPKAP-K2(h) (Homo sapiens, UniProt P49137)
T15 construct: purchased Eurofins Cerep SA (KinaseProfiler)
Procedure: as §1

[16] = biological target: T16, DRAK2(h) (Homo sapiens, UniProt O94768)
T16 construct: purchased Eurofins Cerep SA (KinaseProfiler)
T16 sequence (O94768 whole entry): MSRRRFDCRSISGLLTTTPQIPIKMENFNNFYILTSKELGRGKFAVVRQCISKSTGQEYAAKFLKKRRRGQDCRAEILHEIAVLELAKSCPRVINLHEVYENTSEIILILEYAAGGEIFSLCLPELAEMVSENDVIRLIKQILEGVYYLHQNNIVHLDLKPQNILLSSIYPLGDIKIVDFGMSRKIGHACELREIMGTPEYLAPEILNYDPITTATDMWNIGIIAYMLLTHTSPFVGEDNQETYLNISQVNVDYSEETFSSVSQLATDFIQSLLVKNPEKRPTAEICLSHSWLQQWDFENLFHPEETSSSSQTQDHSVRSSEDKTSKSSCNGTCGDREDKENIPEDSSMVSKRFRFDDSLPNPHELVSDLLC
Procedure: as §1

[17] = biological target: T17, PAR-1Bα(h) (Homo sapiens, UniProt Q7KZI7)
T17 construct: purchased Eurofins Cerep SA (KinaseProfiler)
Procedure: as §1

[18] = biological target: T18, SAPK2b(h) (Homo sapiens, UniProt Q15759)
T18 construct: purchased Eurofins Cerep SA (KinaseProfiler)
Procedure: as §1

[19] = biological target: T19, EphA8(h) (Homo sapiens, UniProt P29322)
T19 construct: purchased Eurofins Cerep SA (KinaseProfiler)
Procedure: as §1

[20] = biological target: T20, Pim-3(h) (Homo sapiens, UniProt Q86V86)
T20 construct: purchased Eurofins Cerep SA (KinaseProfiler)
Procedure: as §1

[21] = biological target: T21, ULK3(h) (Homo sapiens, UniProt Q6PHR2)
T21 construct: purchased Eurofins Cerep SA (KinaseProfiler)
Procedure: as §1

[22] = biological target: T22, PKR(h) (Homo sapiens, UniProt P19525)
T22 construct: purchased Eurofins Cerep SA (KinaseProfiler)
Procedure: as §1

[23] = biological target: T23, CK1γ3(h) (Homo sapiens, UniProt Q9Y6M4)
T23 construct: purchased Eurofins Cerep SA (KinaseProfiler)
Procedure: as §1

[24] = biological target: T24, MSK2(h) (Homo sapiens, UniProt O75676)
T24 construct: purchased Eurofins Cerep SA (KinaseProfiler)
Procedure: as §1

[25] = biological target: T25, SGK3(h) (Homo sapiens, UniProt Q96BR1)
T25 construct: purchased Eurofins Cerep SA (KinaseProfiler)
Procedure: as §1

[26] = biological target: T26, TSSK4(h) (Homo sapiens, UniProt Q6SA08)
T26 construct: purchased Eurofins Cerep SA (KinaseProfiler)
T26 sequence (Q6SA08 whole entry): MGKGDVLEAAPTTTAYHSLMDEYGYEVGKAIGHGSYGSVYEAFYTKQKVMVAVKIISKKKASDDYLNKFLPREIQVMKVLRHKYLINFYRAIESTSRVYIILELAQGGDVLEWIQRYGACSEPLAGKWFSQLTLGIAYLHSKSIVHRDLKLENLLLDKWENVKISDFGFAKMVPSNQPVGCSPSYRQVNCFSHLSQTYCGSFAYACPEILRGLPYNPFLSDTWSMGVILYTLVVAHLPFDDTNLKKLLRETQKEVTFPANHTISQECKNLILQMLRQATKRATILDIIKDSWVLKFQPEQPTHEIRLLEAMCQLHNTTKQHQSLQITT
Procedure: as §1

[27] = biological target: T27, PEK(h) (Homo sapiens, UniProt Q9NZJ5)
T27 construct: purchased Eurofins Cerep SA (KinaseProfiler)
Procedure: as §1

[28] = biological target: T28, FGFR2(h) (Homo sapiens, UniProt P21802)
T28 construct: purchased Eurofins Cerep SA (KinaseProfiler)
Procedure: as §1

[29] = biological target: T29, PDK1(h) (Homo sapiens, UniProt O15530)
T29 construct: purchased Eurofins Cerep SA (KinaseProfiler)
Procedure: as §1

[30] = biological target: T30, GSK3α(h) (Homo sapiens, UniProt P49840)
T30 construct: purchased Eurofins Cerep SA (KinaseProfiler)
Procedure: as §1

[31] = biological target: T31, PKBα(h) (Homo sapiens, UniProt P31749)
T31 construct: purchased Eurofins Cerep SA (KinaseProfiler)
Procedure: as §1

[32] = biological target: T32, Ros(h) (Homo sapiens, UniProt P08922)
T32 construct: purchased Eurofins Cerep SA (KinaseProfiler)
Procedure: as §1

[33] = biological target: T33, ChaK1(h) (Homo sapiens, UniProt Q96QT4)
T33 construct: purchased Eurofins Cerep SA (KinaseProfiler)
Procedure: as §1

[34] = biological target: T34, c-RAF(h) (Homo sapiens, UniProt P04049)
T34 construct: purchased Eurofins Cerep SA (KinaseProfiler)
T34 sequence (P04049 whole entry): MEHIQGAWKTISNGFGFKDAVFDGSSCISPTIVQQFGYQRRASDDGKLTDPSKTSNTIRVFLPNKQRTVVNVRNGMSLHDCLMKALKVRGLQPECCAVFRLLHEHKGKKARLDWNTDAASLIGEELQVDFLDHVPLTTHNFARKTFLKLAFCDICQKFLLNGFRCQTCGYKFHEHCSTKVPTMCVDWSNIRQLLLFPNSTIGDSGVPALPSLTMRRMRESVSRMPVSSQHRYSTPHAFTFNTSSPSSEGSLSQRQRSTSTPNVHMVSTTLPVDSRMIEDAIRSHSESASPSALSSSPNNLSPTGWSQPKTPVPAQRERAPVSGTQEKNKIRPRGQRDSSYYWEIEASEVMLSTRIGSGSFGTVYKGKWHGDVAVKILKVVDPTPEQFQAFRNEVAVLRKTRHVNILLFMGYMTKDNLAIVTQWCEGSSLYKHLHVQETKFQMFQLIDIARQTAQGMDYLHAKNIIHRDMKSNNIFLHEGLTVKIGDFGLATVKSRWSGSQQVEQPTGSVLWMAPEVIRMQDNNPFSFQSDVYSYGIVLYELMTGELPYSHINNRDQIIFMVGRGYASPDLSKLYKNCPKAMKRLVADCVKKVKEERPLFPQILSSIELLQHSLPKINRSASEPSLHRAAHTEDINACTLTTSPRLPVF
Procedure: as §1

[35] = biological target: T35, PIP5K1a(h) (Homo sapiens, UniProt Q99755)
T35 construct: purchased Eurofins Cerep SA (KinaseProfiler)
Procedure: as §1

[36] = biological target: T36, cKit(h) (Homo sapiens, UniProt P10721)
T36 construct: purchased Eurofins Cerep SA (KinaseProfiler)
Procedure: as §1

[37] = biological target: T37, PI3 Kinase (p110d/p85a)(h) (Homo sapiens, UniProt O00329)
T37 construct: purchased Eurofins Cerep SA (KinaseProfiler)
Procedure: as §1

[38] = biological target: T38, CLK3(h) (Homo sapiens, UniProt P49761)
T38 construct: purchased Eurofins Cerep SA (KinaseProfiler)
Procedure: as §1

[39] = biological target: T39, ErbB4(h) (Homo sapiens, UniProt Q15303)
T39 construct: purchased Eurofins Cerep SA (KinaseProfiler)
Procedure: as §1

[40] = biological target: T40, Tie2 (h) (Homo sapiens, UniProt Q02763)
T40 construct: purchased Eurofins Cerep SA (KinaseProfiler)
Procedure: as §1

[41] = biological target: T41, AMPKα2(h) (Homo sapiens, UniProt P54646)
T41 construct: purchased Eurofins Cerep SA (KinaseProfiler)
T41 sequence (P54646 whole entry): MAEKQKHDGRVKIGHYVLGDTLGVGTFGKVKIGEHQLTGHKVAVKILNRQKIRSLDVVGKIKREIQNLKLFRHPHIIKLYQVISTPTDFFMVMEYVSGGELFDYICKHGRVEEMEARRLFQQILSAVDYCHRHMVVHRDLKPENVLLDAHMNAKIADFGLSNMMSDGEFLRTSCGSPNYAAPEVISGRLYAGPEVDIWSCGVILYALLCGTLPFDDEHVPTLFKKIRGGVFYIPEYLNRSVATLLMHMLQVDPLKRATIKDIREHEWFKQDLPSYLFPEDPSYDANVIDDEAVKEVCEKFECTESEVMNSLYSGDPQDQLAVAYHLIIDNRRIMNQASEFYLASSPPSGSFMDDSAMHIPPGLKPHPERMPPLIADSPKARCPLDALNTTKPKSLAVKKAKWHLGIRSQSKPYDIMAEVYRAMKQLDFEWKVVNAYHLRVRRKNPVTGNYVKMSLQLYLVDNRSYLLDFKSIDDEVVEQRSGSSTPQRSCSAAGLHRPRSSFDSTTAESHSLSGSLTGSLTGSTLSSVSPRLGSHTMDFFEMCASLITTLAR
T41 sequence (Q9Y478 whole entry partner): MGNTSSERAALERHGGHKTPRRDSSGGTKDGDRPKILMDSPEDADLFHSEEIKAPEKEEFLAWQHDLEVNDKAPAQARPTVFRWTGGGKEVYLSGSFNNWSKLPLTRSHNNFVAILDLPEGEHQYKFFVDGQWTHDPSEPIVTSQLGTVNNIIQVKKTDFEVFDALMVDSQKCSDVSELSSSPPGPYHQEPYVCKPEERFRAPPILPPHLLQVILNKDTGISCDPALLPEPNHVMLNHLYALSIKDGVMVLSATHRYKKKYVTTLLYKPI
T41 sequence (P54619 whole entry partner): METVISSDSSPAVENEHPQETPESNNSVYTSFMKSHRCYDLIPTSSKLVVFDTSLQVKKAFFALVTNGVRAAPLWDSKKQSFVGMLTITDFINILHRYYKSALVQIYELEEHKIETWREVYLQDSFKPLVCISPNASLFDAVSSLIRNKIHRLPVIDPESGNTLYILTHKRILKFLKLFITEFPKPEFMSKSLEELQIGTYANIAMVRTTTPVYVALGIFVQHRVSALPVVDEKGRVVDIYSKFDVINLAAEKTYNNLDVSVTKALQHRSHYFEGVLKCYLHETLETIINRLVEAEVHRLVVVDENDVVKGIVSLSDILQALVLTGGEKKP
Procedure: as §1

## CN(C)Cc1cccc(Nc2ncc(Cl)c(-c3csc(C(=O)NN4CCOCC4)c3)n2)c1 [SKLB-D18, 4-(5-chloro-2-((3-((dimethylamino)methyl)phenyl)amino)pyrimidin-4-yl)-N-morpholinothiophene-2-carboxamide]
[1]
  inhibition at 1 µM: 38%
[2]
  inhibition at 1 µM: 43%
[3]
  inhibition at 1 µM: 67%
[4]
  inhibition at 1 µM: -7%
[5]
  inhibition at 1 µM: 58%
[6]
  inhibition at 1 µM: 44%
[7]
  inhibition at 1 µM: -14%
[8]
  inhibition at 1 µM: 1%
[9]
  inhibition at 1 µM: -5%
[10]
  inhibition at 1 µM: 63%
[11]
  inhibition at 1 µM: 16%
[12]
  inhibition at 1 µM: 21%
[13]
  inhibition at 1 µM: 60%
[14]
  inhibition at 1 µM: 14%
[15]
  inhibition at 1 µM: 1%
[16]
  inhibition at 1 µM: 29%
[17]
  inhibition at 1 µM: 65%
[18]
  inhibition at 1 µM: 4%
[19]
  inhibition at 1 µM: 14%
[20]
  inhibition at 1 µM: 33%
[21]
  inhibition at 1 µM: 45%
[22]
  inhibition at 1 µM: 26%
[23]
  inhibition at 1 µM: 14%
[24]
  inhibition at 1 µM: 16%
[25]
  inhibition at 1 µM: 9%
[26]
  inhibition at 1 µM: 36%
[27]
  inhibition at 1 µM: 3%
[28]
  inhibition at 1 µM: 55%
[29]
  inhibition at 1 µM: 42%
[30]
  inhibition at 1 µM: 58%
[31]
  inhibition at 1 µM: 12%
[32]
  inhibition at 1 µM: -4%
[33]
  inhibition at 1 µM: 0%
[34]
  inhibition at 1 µM: 65%
[35]
  inhibition at 1 µM: -5%
[36]
  inhibition at 1 µM: 69%
[37]
  inhibition at 1 µM: 0%
[38]
  inhibition at 1 µM: 11%
[39]
  inhibition at 1 µM: -16%
[40]
  inhibition at 1 µM: 44%
[41]
  inhibition at 1 µM: 60%
